Experiment [1] has as its system Aspergillus fumigatus. Nature of the experiment: Antifungal activity against Aspergillus fumigatus expressing fks1 gene EMFR-S678P/WT mutant after 24 to 48 hrs by broth dilution susceptibility test. Conditions: read-out: MEC. The class given is functional.
The test system of experiment [2] is Aspergillus fumigatus. Nature of the experiment: Ratio of IC50 for Aspergillus fumigatus 1,3-beta-D-glucan synthase EMFR-S678P mutant to IC50 for Aspergillus fumigatus wild-type 1,3-beta-D-glucan synthase KU80delta.
The test system of experiment [3] is Aspergillus fumigatus. In words: Antifungal activity against Aspergillus fumigatus expressing fks1 gene EMFR-S678P mutant after 24 to 48 hrs by broth dilution susceptibility test. Conditions: read-out: MEC. The class given is functional. For orientation: In broth dilution the organism is exposed to a series of concentrations in liquid medium.
Experiment [4] can be described thus: Inhibition of 1,3-beta-D-glucan synthase EMFR-S678P/WT mutant from Aspergillus fumigatus assessed as incorporation of [3H]glucose.
Experiment [5] is described as follows: Inhibition of wild-type 1,3-beta-D-glucan synthase KU80delta from Aspergillus fumigatus assessed as incorporation of [3H]glucose.
In experiment [6] the test system is Aspergillus fumigatus. Nature of the experiment: Antifungal activity against Aspergillus fumigatus expressing wild-type fks1 gene KU80delta after 24 to 48 hrs by broth dilution susceptibility test. The class given is functional. Conditions: read-out: MEC.
The target in experiment [7] is Fksp (Neosartorya fumigata (Aspergillus fumigatus), UniProt P87204, S678P). In words: Inhibition of 1,3-beta-D-glucan synthase EMFR-S678P mutant from Aspergillus fumigatus assessed as incorporation of [3H]glucose.

pIC50: −log10 of the molar value. Converted amounts (≈) assume the structure as drawn. Numbered stars: 1 amine (or outer) side, 2 acyl side, 3 side chain; on linkers, the order of the positions; unused ones are H or OH. Bridge positions count the residues as written; N and C are the ends. Square brackets hold non-standard residues; d marks the D form. Peptide text beside a SMILES is read from it. * marks the point of attachment. hTyr(3S-OH,4S-OH,3'-OSO3H) = N[C@H](C(=O)O)[C@H](O)[C@@H](O)c1ccc(O)c(OS(=O)(=O)O)c1; pTerphenylCO(4''-OnC5H11) = CCCCCOc1ccc(-c2ccc(-c3ccc(C(=O)*)cc3)cc2)cc1; Orn(4R-OH,5R-OH) = O=C([C@H](C[C@@H](O)[C@@H](O)N[*:3])N[*:1])[*:2]; hTyr(3S-OH,4S-OH) = N[C@H](C(=O)O)[C@H](O)[C@@H](O)c1ccc(O)cc1; Pro(3S-OH,4S-Me) = C[C@H]1CN[C@H](C(=O)O)[C@H]1O; X1 = CCCCCOc1ccc(-c2cc(-c3ccc(C(=O)*)cc3)no2)cc1; Gln(3R-OH) = NC(=O)C[C@@H](O)[C@H](N)C(=O)O; Hyp = O=C(O)[C@@H]1C[C@@H](O)CN1 A value given as a limit tells only on which side of the number the result lay.

Sequence of Fksp (P87204 entry or part of it S678P): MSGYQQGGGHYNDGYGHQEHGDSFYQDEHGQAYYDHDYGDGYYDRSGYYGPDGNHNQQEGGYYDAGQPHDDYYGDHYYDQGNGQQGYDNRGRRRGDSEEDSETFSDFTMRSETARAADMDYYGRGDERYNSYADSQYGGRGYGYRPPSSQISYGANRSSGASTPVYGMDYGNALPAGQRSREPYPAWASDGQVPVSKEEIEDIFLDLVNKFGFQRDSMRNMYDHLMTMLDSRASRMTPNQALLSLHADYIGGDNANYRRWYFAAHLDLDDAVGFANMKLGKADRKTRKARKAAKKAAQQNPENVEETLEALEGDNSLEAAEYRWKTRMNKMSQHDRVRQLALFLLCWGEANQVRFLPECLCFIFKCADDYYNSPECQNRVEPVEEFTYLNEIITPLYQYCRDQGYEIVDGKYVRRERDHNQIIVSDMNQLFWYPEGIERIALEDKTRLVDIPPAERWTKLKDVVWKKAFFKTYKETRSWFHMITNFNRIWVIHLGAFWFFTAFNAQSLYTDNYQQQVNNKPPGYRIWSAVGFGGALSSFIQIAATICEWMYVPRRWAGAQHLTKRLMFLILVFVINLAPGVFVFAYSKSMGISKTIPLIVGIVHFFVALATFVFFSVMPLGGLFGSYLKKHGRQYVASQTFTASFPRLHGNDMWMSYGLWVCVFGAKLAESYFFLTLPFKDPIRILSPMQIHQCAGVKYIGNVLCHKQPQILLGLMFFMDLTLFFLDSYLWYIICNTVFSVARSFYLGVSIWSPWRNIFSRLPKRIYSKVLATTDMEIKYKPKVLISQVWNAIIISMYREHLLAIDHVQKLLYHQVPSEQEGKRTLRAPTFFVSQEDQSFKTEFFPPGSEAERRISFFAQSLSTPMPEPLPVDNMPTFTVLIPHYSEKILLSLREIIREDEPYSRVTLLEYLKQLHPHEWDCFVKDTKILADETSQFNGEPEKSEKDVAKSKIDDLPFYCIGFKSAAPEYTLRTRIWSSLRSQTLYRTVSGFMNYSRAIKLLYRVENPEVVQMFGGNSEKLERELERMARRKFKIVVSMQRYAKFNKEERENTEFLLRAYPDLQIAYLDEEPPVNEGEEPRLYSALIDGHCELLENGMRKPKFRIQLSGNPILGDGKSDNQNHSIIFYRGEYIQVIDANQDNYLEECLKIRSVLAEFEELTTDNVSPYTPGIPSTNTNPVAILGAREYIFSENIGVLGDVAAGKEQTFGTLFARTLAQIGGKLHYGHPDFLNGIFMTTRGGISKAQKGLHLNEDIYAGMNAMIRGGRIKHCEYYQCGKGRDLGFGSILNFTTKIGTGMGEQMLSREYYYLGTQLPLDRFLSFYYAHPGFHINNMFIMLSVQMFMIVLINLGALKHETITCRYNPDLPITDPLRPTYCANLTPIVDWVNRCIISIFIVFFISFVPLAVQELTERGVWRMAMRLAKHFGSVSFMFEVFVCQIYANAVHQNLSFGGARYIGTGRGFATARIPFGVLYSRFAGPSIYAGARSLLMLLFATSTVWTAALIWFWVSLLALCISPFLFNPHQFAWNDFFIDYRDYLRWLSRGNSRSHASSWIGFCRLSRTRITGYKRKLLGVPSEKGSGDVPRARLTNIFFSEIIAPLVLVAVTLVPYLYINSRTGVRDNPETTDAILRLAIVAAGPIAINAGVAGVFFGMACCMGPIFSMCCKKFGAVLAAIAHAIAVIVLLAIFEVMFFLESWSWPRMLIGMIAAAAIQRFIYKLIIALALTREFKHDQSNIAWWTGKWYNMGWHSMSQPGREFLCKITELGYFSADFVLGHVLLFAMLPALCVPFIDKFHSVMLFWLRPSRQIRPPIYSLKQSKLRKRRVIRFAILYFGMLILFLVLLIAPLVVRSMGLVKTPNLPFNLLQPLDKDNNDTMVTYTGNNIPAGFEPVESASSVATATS

By IC50 is commonly meant the concentration that inhibits the measured activity by half. As a reminder, the pIC50 is the IC50 on a negative log10 scale, so that one unit is a factor of ten. In the case of `CCCCCOc1ccc(-c2ccc(-c3ccc(C(=O)N[C@H]4C[C@@H](O)[C@@H](O)NC(=O)[C@@H]5[C@@H](O)[C@@H](C)CN5C(=O)[C@H]([C@@H](C)O)NC(=O)[C@H]([C@H](O)[C@@H](O)c5ccc(O)cc5)NC(=O)[C@@H]5C[C@@H](O)CN5C(=O)[C@H]([C@@H](C)O)NC4=O)cc3)cc2)cc1` [ANIDULAFUNGIN] ({pTerphenylCO(4''-OnC5H11)}-[Orn(4R-OH,5R-OH)]T[Hyp][hTyr(3S-OH,4S-OH)]T[Pro(3S-OH,4S-Me)]; lactam 1-C), the results for the minimal effective concentration in experiment [1], in experiment [3] and in experiment [6] were 8 µg/mL, 16 µg/mL and 0.015 µg/mL, respectively. Moreover, the Ratio IC50 in experiment [2] turned out to be 122. Further, the half-inhibitory concentration (IC50) amounted to 0.37 ng/mL (≈ 0.324 nM) in experiment [4] and 0.24 ng/mL (≈ 0.21 nM) in experiment [5]. The negative logarithm of the IC50 (pIC50) in experiment [7] is 7.59.

On to `CC[C@H](C)C[C@H](C)CCCCCCCCC(=O)N[C@H]1C[C@@H](O)[C@@H](NCCN)NC(=O)[C@@H]2[C@@H](O)CCN2C(=O)[C@H]([C@H](O)CCN)NC(=O)[C@H]([C@H](O)[C@@H](O)c2ccc(O)cc2)NC(=O)[C@@H]2C[C@@H](O)CN2C(=O)[C@H]([C@@H](C)O)NC1=O` [CASPOFUNGIN], for which the minimal effective concentration was above 16 µg/mL in experiment [1], above 16 µg/mL in experiment [3] and 0.25 µg/mL in experiment [6]. The Ratio IC50 in experiment [2] amounted to 121. In addition, the IC50 in experiment [4] was found to be 0.12 ng/mL (≈ 0.11 nM); in experiment [5], 0.91 ng/mL (≈ 0.832 nM). Moreover, the pIC50 in experiment [7] was 7.00.

Turning to `CCCCCOc1ccc(-c2cc(-c3ccc(C(=O)N[C@H]4C[C@@H](O)[C@@H](O)NC(=O)[C@@H]5[C@@H](O)[C@@H](C)CN5C(=O)[C@H]([C@H](O)CC(N)=O)NC(=O)[C@H]([C@H](O)[C@@H](O)c5ccc(O)c(OS(=O)(=O)O)c5)NC(=O)[C@@H]5C[C@@H](O)CN5C(=O)[C@H]([C@@H](C)O)NC4=O)cc3)no2)cc1` [MICAFUNGIN] (X1-[Orn(4R-OH,5R-OH)]T[Hyp][hTyr(3S-OH,4S-OH,3'-OSO3H)][Gln(3R-OH)][Pro(3S-OH,4S-Me)]; lactam 1-C), the results for the minimal effective concentration in experiment [1], in experiment [3] and in experiment [6] were 8 µg/mL, above 16 µg/mL and 0.015 µg/mL, respectively. The Ratio IC50 in experiment [2] came to 20. Further, the IC50 in experiment [4] stood at 0.5 ng/mL (≈ 0.394 nM); in experiment [5], 0.63 ng/mL (≈ 0.496 nM). Besides, the pIC50 in experiment [7] is 8.00.

Values taken from ChEMBL document CHEMBL1138536, “A Ser678Pro substitution in Fks1p confers resistance to echinocandin drugs in Aspergillus fumigatus” (Antimicrob Agents Chemother, 2007).
